Eleven compounds from patent US5114941A, “Pyrimidinedione derivative compounds, method for preparing same, and antiarrythmic agents containing same” (Mitsui Toatsu Chemicals, Incorporated, priority 1989, dated 1992) can be followed below.

In data set [1] the test system is Purkinje fiber of the right ventricular free wall. The data set is described as follows: Influence on myocardial action potential duration time (APD75), isolated right ventricular free wall. Set-up: species or system dog (hybrid adult dog). To be noted: Canis lupus familiaris, 20 min, 20 minutes' incubation; for APD75 prolongation (% change vs before administration) at 1 µg/mL: dose 1.0 μg/ml; for APD75 prolongation (% change vs before administration) at 3 µg/mL: dose 3.0 μg/ml; for APD75 prolongation (% change vs before administration) at 10 µg/mL: dose 10.0 μg/ml. As to the method: (1) Influence on myocardial action potential duration time (APD75): To a hybrid adult dog, 30 mg/kg of pentobarbital was administered through a vein, and after being anesthetized, the heart was removed. Afterward, the right ventricular free wall of the heart was cut and taken out in a Tyrode solution. […] In this isolated condition, myocardial action potential duration times (APD75) were measured before and after the administration of the respective compounds prepared in the above examples in Table 1 and d-sotalol as a control medicine, and APD75 (%) was calculated from the measured results in accordance with the formula: APD75 (%)=([…]75 before administration B: APD75 after administration Here, APD75 was measured as follows: […] This measured time was regarded as the myocardial action potential duration time (APD75). […] Incidentally, this test was carried out in accordance with a Sato et al's method [H. Sato, K. Hashimoto, Arzneimeittel Forschung, 34 (1), 3a, 376-380 (1984)].

For data set [2], the system named is ventricular muscle refractory period. The data set is described as follows: Influence on ventricular muscle refractory period (ERP). The conditions noted are these: Canis lupus familiaris, iv, i.v., anesthetized dog, change vs before administration, read-out: ERP (%; extensibility of refractory period). Format: in vivo, dog (mongrel adult dog). How it is done:
(2) Influence on ventricular muscle refractory period:
Refractory periods were measured in the following manner before and after each of the compounds and d-sotalol shown in Table 1 was separately administered to a vein or a duodenum, and ERP (%; extensibility of refractory period) was calculated from the measured values in accordance with the following formula: […]
W: Refractory period after administration
Y: Refractory period before administration
To a mongrel adult dog, 30 mg/kg of pentobarbital was administered intravenously, and after being anesthetized, a pair of silver-silver chloride electrodes separated by 3 mm was sewn on an opened right ventricule, and electrical stimulation was given at an interval of 400 msec at a duration time of 4 msec under a current twice as much as the threshold. Afterward, a small amount of alcohol was injected into a sinus artery in order to extinguish a pacemaker activity, and the ventricular refractory period (ERP) was measured under ventricule pacing.
That is, 1 train comprised 10 stimulations, and an interval between two of the trains was usually 400 msec. At the time of the refractory period measurement, however, the above interval was shortened every 10 smec, and the interval between the trains at the time when reaction to the first stimulation of the train disappeared was regarded as the refractory period.
In this case, the electrical stimulation was fed in accordance with a program by a heart stimulation device (Diamedical Co., Ltd.; DHM-226-3).

The nature of data set [3]: Toxicity test, mortality 24 hours after oral administration. The conditions noted are these: mouse, in vivo, 300 mg/kg p.o., mice, 24 hours after administration, read-out: Mortality Rate (%). How it is done:
Each of the compounds prepared in the above-mentioned examples shown in Table 2 was administered into a mouse (ddy strain, male). In each case, the administration was effected by oral administration (p.o.) in a dose of 300 mg/kg.
A mortality rate (number of specimens: one group=2 to 4 mice) of the mice 24 hours after the administration was calculated, and the results are set forth in Table 2.

SMILES strings stand for the structures. Counter-ions that a name gives are not always drawn.

Turning to `Cc1oc2cccc(OCCCN3CCN(c4cc(=O)n(C)c(=O)n4C)CC3)c2c(=O)c1C` [Compound 7, 1,3-dimethyl-6-(4-[3-(2,3-dimethyl-4-oxo-4H-1-benzopyran-5-yl)oxypropyl]piperazine-1-yl)-2,4(1H,3H)-pyrimidinedione oxalate], in data set [1], the APD75 prolongation (% change vs before administration) at 1 µg/mL stood at 25% and the APD75 prolongation (% change vs before administration) at 3 µg/mL stood at 31%. Moreover, in data set [2], the change in vivo at 0.1 mg/kg came to 12%, the change in vivo at 0.3 mg/kg was 18%, the change in vivo at 1 mg/kg was found to be 18% and the change in vivo at 3 mg/kg is 24%. In addition, the mortality at 24 h in data set [3] amounted to 0%.
Turning to `CC(C)NCC(O)c1ccc(NS(C)(=O)=O)cc1` (stereo not drawn) [d-sotalol, reference compound], in data set [1] (dose 0.3 μg/ml), the APD75 prolongation (% change vs before administration) at 0.3 µg/mL turned out to be 0%. Moreover, in data set [1], the APD75 prolongation (% change vs before administration) at 1 µg/mL stood at 3%, the APD75 prolongation (% change vs before administration) at 3 µg/mL turned out to be 7.4% and the APD75 prolongation (% change vs before administration) at 10 µg/mL was found to be 15.8%. Also, in data set [2], the change in vivo at 0.1 mg/kg turned out to be 1.7%, the change in vivo at 0.3 mg/kg stood at 6.7%, the change in vivo at 1 mg/kg turned out to be 8.7% and the change in vivo at 3 mg/kg is 15.5%.
In data set [1], `CCN(CCCOc1cccc2occ(C)c(=O)c12)CCNc1cc(=O)n(C)c(=O)n1C` [Compound 14, 1,3-dimethyl-6-(2-[N-ethyl-N-[3-(3-methyl-4-oxo-4H-1-benzopyran-5-yl)oxypropyl]amino[ethylamino)-2,4(1H,3H)-pyrimidinedione oxalate] yielded an APD75 prolongation (% change vs before administration) at 1 µg/mL of 4%, an APD75 prolongation (% change vs before administration) at 3 µg/mL of 17% and an APD75 prolongation (% change vs before administration) at 10 µg/mL of 25%. Besides, in data set [2], the change in vivo at 0.1 mg/kg came to 6.8%, the change in vivo at 0.3 mg/kg was found to be 6.8%, the change in vivo at 1 mg/kg was 10.7% and the change in vivo at 3 mg/kg was found to be 13.6%. Besides, the mortality at 24 h in data set [3] was 0%.
For `Cn1c(N2CCN(CCCOc3cccc4occc(=O)c34)CC2)cc(=O)n(C)c1=O` [Compound 38, 1,3-Dimethyl-6-(4-[3-(4-oxo-4H-1-benzopyran-5-yl)oxypropyl]pyperazine-1-yl)-2,4(1H,3H)-pyrimidinedione hydrochloride], in data set [1], the APD75 prolongation (% change vs before administration) at 1 µg/mL worked out at 10%, the APD75 prolongation (% change vs before administration) at 3 µg/mL amounted to 20% and the APD75 prolongation (% change vs before administration) at 10 µg/mL was found to be 39%. Besides, in data set [2], the change in vivo at 0.1 mg/kg stood at 4.5%, the change in vivo at 0.3 mg/kg is 9.3%, the change in vivo at 1 mg/kg was found to be 16% and the change in vivo at 3 mg/kg worked out at 16%. For the same compound, the mortality at 24 h in data set [3] turned out to be 0%.
In the case of `Cn1c(N2CCN(CCCOc3cccc4oc(-c5ccccc5)cc(=O)c34)CC2)cc(=O)n(C)c1=O` [Compound 39, 1,3-Dimethyl-6-(4-[3-(2-phenyl-4-oxo-4H-1-benzopyran-5-yl)oxypropyl]piperazine-1-yl)-2,4(1H,3H)-pyrimidinedione oxalate], in data set [1], the APD75 prolongation (% change vs before administration) at 1 µg/mL came out at 7% and the APD75 prolongation (% change vs before administration) at 3 µg/mL is 20%. Moreover, in data set [2], the change in vivo at 0.1 mg/kg stood at 7.1%, the change in vivo at 0.3 mg/kg worked out at 14.3%, the change in vivo at 1 mg/kg is 14.3% and the change in vivo at 3 mg/kg is 14.3%. In addition, the mortality at 24 h in data set [3] is 0%.
In data set [1], `CCOC(=O)c1cc(=O)c2ccc(OCCCN3CCN(c4cc(=O)n(C)c(=O)n4C)CC3)cc2o1` [Compound 50, 1,3-Dimethyl-6-(4-[3-(2-ethoxycarbonyl-4-oxo-4H-1-benzopyran-7-yl)oxypropyl]piperazine-1-yl)-2,4-(1H,3H)-pyrimidinedione oxalate] showed an APD75 prolongation (% change vs before administration) at 1 µg/mL of 7%, an APD75 prolongation (% change vs before administration) at 3 µg/mL of 14% and an APD75 prolongation (% change vs before administration) at 10 µg/mL of 28%. Further, in data set [2], the change in vivo at 0.1 mg/kg is 0%, the change in vivo at 0.3 mg/kg amounted to 0%, the change in vivo at 1 mg/kg came to 0% and the change in vivo at 3 mg/kg came out at 6.3%.
In data set [1], `Cn1c(N2CCN(CCCOc3cccc4oc(-c5ccncc5)cc(=O)c34)CC2)cc(=O)n(C)c1=O` [Compound 25, 1,3-dimethyl-6-(4-[3-[2-(pyridine-4-yl)-4-oxo-4H-1-benzopyran-5-yl]oxypropyl]piperazine-1-yl)-2,4(1H,3H)-pyrimidinedione dihydrochloride] returned an APD75 prolongation (% change vs before administration) at 1 µg/mL of 7%, an APD75 prolongation (% change vs before administration) at 3 µg/mL of 19% and an APD75 prolongation (% change vs before administration) at 10 µg/mL of 27%. In data set [2], the change in vivo at 0.1 mg/kg came to 6.3%, the change in vivo at 0.3 mg/kg was 6.7% and the change in vivo at 1 mg/kg turned out to be 12.5%. The mortality at 24 h in data set [3] was found to be 0%.
Consider `Cc1coc2cccc(OCCCN3CCN(c4cc(=O)n(C)c(=O)n4C)CC3)c2c1=O` [Compound 4, 1,3-dimethyl-6-(4-[3-(3-methyl-4-oxo-4H-1-benzopyran-5-yl)oxypropyl]piperazine-1-yl)-2,4(1H,3H)-pyrimidinedione hydrochloride], for which, in data set [1], the APD75 prolongation (% change vs before administration) at 1 µg/mL turned out to be 24% and the APD75 prolongation (% change vs before administration) at 3 µg/mL came out at 30%. Further, in data set [2], the change in vivo at 0.1 mg/kg came to 6.3%, the change in vivo at 0.3 mg/kg was 12.5%, the change in vivo at 1 mg/kg came to 12.5% and the change in vivo at 3 mg/kg was determined as 25%. Besides, in data set [3], the mortality at 24 h is 0%.
On to `Cn1c(N2CCN(CCCOc3cccc4c3C(=O)CC(c3ccccc3)O4)CC2)cc(=O)n(C)c1=O` (stereo not drawn) [Compound 21, 1,3-dimethyl-6-(4-[3-(2-phenyl-4-oxo-2,3-dihydro-4H-1-benzopyran-5-yl)oxypropyl]piperazine-1-yl)-2,4(1H,3H)-pyrimidinedione oxalate], for which, in data set [1], the APD75 prolongation (% change vs before administration) at 1 µg/mL was found to be 12%, the APD75 prolongation (% change vs before administration) at 3 µg/mL came to 16% and the APD75 prolongation (% change vs before administration) at 10 µg/mL was determined as 20%. Further, in data set [2], the change in vivo at 0.1 mg/kg was found to be 0%, the change in vivo at 0.3 mg/kg was determined as 0%, the change in vivo at 1 mg/kg came out at 0% and the change in vivo at 3 mg/kg was 7.7%. For the same compound, the mortality at 24 h in data set [3] turned out to be 0%.
Take `Cn1c(N2CCN(CCCOc3ccc4c(=O)cc(-c5ccccc5)oc4c3)CC2)cc(=O)n(C)c1=O` [Compound 48, 1,3-Dimethyl-6-(4-[3-(2-phenyl-4-oxo-4H-1-benzopyran-7-yl)oxypropyl]piperazine-1-yl)-2,4(1H,3H)-pyrimidinedione oxalate]: in data set [1], the APD75 prolongation (% change vs before administration) at 1 µg/mL stood at 7% and the APD75 prolongation (% change vs before administration) at 3 µg/mL stood at 12%. Besides, in data set [2], the change in vivo at 0.1 mg/kg stood at 0%, the change in vivo at 0.3 mg/kg amounted to 0%, the change in vivo at 1 mg/kg stood at 6.9% and the change in vivo at 3 mg/kg stood at 20.4%.
In data set [1], `Cc1cc(=O)c2c(OCCCN3CCN(c4cc(=O)n(C)c(=O)n4C)CC3)cccc2o1` [Compound 40, 1,3-Dimethyl-6-(4-[3-(2-methyl-4-oxo-4H-1-benzopyran-5-yl)oxypropyl-piperazine-1-yl)-2,4(1H,3H)-pyrimidinedione hydrochloride] registered an APD75 prolongation (% change vs before administration) at 1 µg/mL of 18%, an APD75 prolongation (% change vs before administration) at 3 µg/mL of 25% and an APD75 prolongation (% change vs before administration) at 10 µg/mL of 29%. For the same compound, in data set [2], the change in vivo at 0.1 mg/kg is 6.9%, the change in vivo at 0.3 mg/kg turned out to be 10.3%, the change in vivo at 1 mg/kg was found to be 13.9% and the change in vivo at 3 mg/kg is 17.4%. In data set [3], the mortality at 24 h was 0%.
